{"source": "patent US10335365B2", "about": "“Bladder cancer specific ligand peptides” (The Regents of the University of California, priority 2009, dated 2019)", "tested_on": "5637 bladder cancer cells", "assay": "Alanine walk and X5 glycine addition, bead binding to 5637 cells", "design": "species or system human", "details": "compared with parental PLZ4", "description": "FIG. 6A-C. Binding of PLZ4 to ανβ3 integrin A. PLZ4 binds to ανβ3 integrin. Beads coated with PLZ4 peptides were incubated with K562 cells transfected with different integrin subunits. PLZ4 can only bind to K562 cells when ανβ3 integrin is expressed on the surface. B. Alanine walk to determine the amino acids important for cell binding. Each amino acid in PLZ4 (SEQ ID NO: 5) was replaced with alanine one at a time to generate beads covered with new peptides (SEQ ID NOS 24-30, respectively, in order of appearance) (alanine walk), and tested for their binding to 5637 bladder cancer cells. Semi-quantitative system was used to determine binding activity: ++++ means very strong binding with 75-100% bead surface covered by cells; +++ means strong binding with 50-74% bead surface covered by cells; […] binding with 25-49% bead surface covered by cells; + means weak binding with 1-24% bead surface covered by cells; − means no binding. C. The effects of glycine residues at the X5 position on the binding of PLZ4 to bladder cancer cells. The peptides on beads in each panel have the same backbone sequence (cQDGRKGFc; SEQ ID NO:11) as PLZ4 (cQDGRMGFc; SEQ ID NO:12) except the M at the X5 position has been replaced with K. One (c) to six (h) numbers of glycine were conjugated to K from Panel c to h (SEQ ID NO:13). The OBOC beads were incubated with 5637 TCC cells. […]", "note": "Positions of bridges follow the written chain, without caps; N, C: chain ends. Non-standard residues stand in square brackets, D forms with d. No end group written: not given here.", "data": [{"substance": "cQDGRKGFc ([dC]QDGRKGF[dC]; disulfide 1-9) [PLZ4 backbone with the M at the X5 position replaced with K]", "values": [{"measurement": "binding of modified peptides on beads to 5637 cells", "result": "no significant changes in binding"}]}]}
